From patent publication US8673938B2, “Chemical compounds” (priority 2006, dated 2014) come the findings set out here.

In this assay the target is human 11βHSD1 enzyme (Homo sapiens (Human), UniProt P28845). Put plainly: biochemical. The conditions noted are these: read-out: % inhibition of human 11-βHSD.
Sequence of human 11βHSD1 enzyme (P28845 whole entry): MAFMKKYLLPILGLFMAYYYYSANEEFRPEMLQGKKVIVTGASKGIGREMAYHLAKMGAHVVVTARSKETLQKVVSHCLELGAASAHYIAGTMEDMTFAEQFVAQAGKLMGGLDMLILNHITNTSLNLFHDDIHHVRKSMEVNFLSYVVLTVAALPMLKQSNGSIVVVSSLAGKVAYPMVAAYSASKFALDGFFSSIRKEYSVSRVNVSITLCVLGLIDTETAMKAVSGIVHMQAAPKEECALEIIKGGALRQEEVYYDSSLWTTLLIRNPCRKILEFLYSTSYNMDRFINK
Turning to `O=C(O)C[C@@H]1CCN(c2ccc(C(=O)NC3C4CC5CC3CC(O)(C5)C4)c(SC3CCCC3)n2)C1` (stereo partly drawn) [Example 93, 2-[(3S)-1-[6-cyclopentylsulfanyl-5-[((2r,5s)-5-hydroxy-2-adamantyl)carbamoyl]pyridin-2-yl]pyrrolidin-3-yl]acetic acid], the inhibition at 30 µM was found to be 85%. For `O=C(O)C[C@@H]1CCCN(c2ccc(C(=O)N[C@H]3C4CC5CC3C[C@@](O)(C5)C4)c(SC3CCCC3)n2)C1` [Example 94], the inhibition at 30 µM was found to be 90%. On to `O=C(O)C[C@H]1CCN(c2ccc(C(=O)N[C@H]3C4CC5CC3C[C@@](O)(C5)C4)c(SC3CCCC3)n2)C1` [Example 95, 2-[(3R)-1-[6-cyclopentylsulfanyl-5-[((2r,5s)-5-hydroxy-2-adamantyl)carbamoyl]pyridin-2-yl]pyrrolidin-3-yl]acetic acid], for which the inhibition at 30 µM turned out to be 88%. Take `O=C(N[C@H]1C2CC3CC1C[C@](O)(C3)C2)c1ccc(N2CC[C@@H](C(=O)O)C2)nc1SC1CCCC1` [Example 96, (3R)-1-[6-cyclopentylsulfanyl-5-[((2r,5s)-5-hydroxy-2-adamantyl)carbamoyl]pyridin-2-yl]pyrrolidine-3-carboxylic acid]: the inhibition at 30 µM was determined as 88%. `O=C(N[C@H]1C2CC3CC1C[C@@](O)(C3)C2)c1ccc(N2CCC[C@H]2C(=O)O)nc1SC1CCCC1` [Example 97, (2S)-1-[6-cyclopentylsulfanyl-5-[((2r,5s)-5-hydroxy-2-adamantyl)carbamoyl]pyridin-2-yl]pyrrolidine-2-carboxylic acid]: the inhibition at 30 µM amounted to 97%.

In the case of `O=C(O)C[C@H]1CCN(c2ccc(C(=O)N[C@H]3C4CC5CC3C[C@](O)(C5)C4)c(SC3CCCCC3)n2)C1` [Example 100, 2-[(3R)-1-[6-cyclohexylsulfanyl-5-[((2r,5s)-5-hydroxy-2-adamantyl)carbamoyl]pyridin-2-yl]pyrrolidin-3-yl]acetic acid], the inhibition at 30 µM turned out to be 92%. Take `O=C(N[C@H]1C2CC3CC1C[C@](O)(C3)C2)c1ccc(N2CCC[C@H]2C(=O)O)nc1SC1CCCCC1` [Example 101, (2S)-1-[6-cyclohexylsulfanyl-5-[((2r,5s)-5-hydroxy-2-adamantyl)carbamoyl]pyridin-2-yl]pyrrolidine-2-carboxylic acid]: the inhibition at 30 µM is 100%.

Turning to `O=C(N[C@H]1C2CC3CC1C[C@](O)(C3)C2)c1ccc(N2CC[C@@H](C(=O)O)C2)nc1SC1CCCCC1` [Example 102, (3R)-1-[6-cyclohexylsulfanyl-5-[((2r,5s)-5-hydroxy-2-adamantyl)carbamoyl]pyridin-2-yl]pyrrolidine-3-carboxylic acid], the inhibition at 30 µM was 89%. With `O=C(O)C[C@@H]1CCCN(c2ccc(C(=O)N[C@H]3C4CC5CC3C[C@@](O)(C5)C4)c(SC3CCCCC3)n2)C1` [Example 103] the figure was 90%. Consider `CC(C)CCSc1nc(N2CCC[C@@H](CC(=O)O)C2)ccc1C(=O)NC1C2CC3CC1CC(O)(C3)C2` (stereo partly drawn) [Example 104, 2-[(3S)-l-[5-[[(2r,5s)-5-hydroxy-2-adamantyl]carbamoyl)-6-(3-methylbutylsulfanyl)pyridin-2-yl]-3-piperidyl]acetic acid], for which the inhibition at 30 µM turned out to be 87%. As for `CC(C)CCSc1nc(N2CC[C@@H](C(=O)O)C2)ccc1C(=O)N[C@H]1C2CC3CC1C[C@@](O)(C3)C2` [Example 105], the inhibition at 30 µM was 92%. Turning to `CC(C)CCSc1nc(N2C[C@@H]3[C@H](C2)[C@H]3C(=O)O)ccc1C(=O)N[C@H]1C2CC3CC1C[C@@](O)(C3)C2` [Example 106, (1R,5S)-3-[5-[((2r,5s)-5-hydroxy-2-adamantyl)carbamoyl]-6-(3-methylbutylsulfanyl)pyridin-2-yl]-3-azabicyclo[3.1.0]hexane-6-carboxylic acid], the inhibition at 30 µM came to 95%. On to `CCCOc1nc(N2CCC[C@@H](CC(=O)O)C2)ccc1C(=O)N[C@H]1C2CC3CC1C[C@@](O)(C3)C2` [Example 109, 2-[(3S)-1-[5-[[(2r,5s)-5-hydroxy-2-adamantyl]carbamoyl]-6-propoxy-pyridin-2-yl]-3-piperidyl]acetic acid], for which the inhibition at 30 µM is 88%.

What is called inhibition is the share of the control response that was lost under treatment.
